The results in this text go back to paper PMC4014121, “Structure of sulfamidase provides insight into the molecular pathology of mucopolysaccharidosis IIIA” (Acta Crystallographica Section D: Biological Crystallography, 2014).

This test addresses T1, SGSH (sulfamidase; N-sulfoglucosamine sulfohydrolase) (Homo sapiens, UniProt P51688).
T1 construct: full-length cDNA with C-terminal RSHHHHHH (residues 503-510), tag kept; secreted from HEK 293 cells, HisTrap purified; signal peptide removed (modelled from residue 21/22); glycosylated; Cys70 converted to formylglycine; homodimer, 55 kDa unglycosylated subunit
T1 sequence (P51688 21-502): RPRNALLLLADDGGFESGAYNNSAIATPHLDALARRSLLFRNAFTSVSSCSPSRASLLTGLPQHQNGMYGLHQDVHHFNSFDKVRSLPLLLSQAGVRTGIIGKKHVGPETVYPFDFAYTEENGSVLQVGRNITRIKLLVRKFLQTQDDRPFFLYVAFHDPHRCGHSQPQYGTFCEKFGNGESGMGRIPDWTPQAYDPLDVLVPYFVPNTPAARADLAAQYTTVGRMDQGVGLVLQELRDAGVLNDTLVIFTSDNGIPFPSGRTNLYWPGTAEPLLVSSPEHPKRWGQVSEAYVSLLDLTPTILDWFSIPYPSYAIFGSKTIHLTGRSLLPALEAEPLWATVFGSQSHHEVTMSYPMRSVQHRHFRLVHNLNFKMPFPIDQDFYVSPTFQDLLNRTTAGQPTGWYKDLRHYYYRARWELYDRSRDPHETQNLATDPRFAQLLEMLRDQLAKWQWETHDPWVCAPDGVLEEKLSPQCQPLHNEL
As to the kind of experiment: two-step fluorometric assay with MU-alphaGlcNS, alpha-glucosidase coupled. The test is classed as biochemical.

With `O=P(O)(O)O` [phosphate], the IC50 (commonly the point on the concentration scale where inhibition reaches its midpoint) came to 1000 µM.

Compound `O=S(=O)(O)O` [sulfate] gave an IC50 of 5000 µM.
